The assay addresses human NAMPT (Homo sapiens (Human), UniProt P43490). As to the kind of experiment: NMN fluorescence biochemical assay (human recombinant NAMPT enzyme assay). An outline of the steps:
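NMN formed was detected by fluorescence (Ex/Em 355/460 nm) after acetophenone, KOH and formic acid derivatization. The cell-free reaction ran 60 min at ambient temperature with 6 nM human NAMPT, 150 μM nicotinamide, 20 μM PRPP, 2.5 mM ATP, pH 7.2 HEPES, and compound dose responses.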

human NAMPT, sequence (P43490 whole entry): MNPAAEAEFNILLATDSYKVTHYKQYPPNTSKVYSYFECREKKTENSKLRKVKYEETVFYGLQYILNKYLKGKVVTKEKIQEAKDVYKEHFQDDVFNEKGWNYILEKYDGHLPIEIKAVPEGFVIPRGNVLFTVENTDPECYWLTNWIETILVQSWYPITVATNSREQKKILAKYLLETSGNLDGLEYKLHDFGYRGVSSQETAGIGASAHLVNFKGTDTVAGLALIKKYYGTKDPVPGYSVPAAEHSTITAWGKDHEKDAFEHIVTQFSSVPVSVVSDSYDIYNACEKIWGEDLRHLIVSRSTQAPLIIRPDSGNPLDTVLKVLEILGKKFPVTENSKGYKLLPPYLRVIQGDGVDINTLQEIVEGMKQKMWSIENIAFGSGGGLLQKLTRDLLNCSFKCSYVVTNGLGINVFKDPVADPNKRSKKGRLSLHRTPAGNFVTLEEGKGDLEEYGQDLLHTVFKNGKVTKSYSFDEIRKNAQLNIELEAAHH

`COc1ccc(COC(=O)Nc2ccc(CN3CCN(C4COC4)CC3)cc2)cc1` [Compound 318, (4-methoxyphenyl)methyl N-(4-{[4-(oxetan-3-yl)piperazin-1-yl]methyl}phenyl)carbamate]: the “AC1.4 Human” value was 6.26 µM and the 50% effective concentration (EC50) came out at 56.8 µM.
For `COc1ccc(COC(=O)Nc2ccc(CN3CCC[C@@H]3c3cccnc3)cc2)cc1` [Compound 1, (4-methoxyphenyl)methyl N-(4-{[(2R)-2-(pyridin-3-yl)pyrrolidin-1-yl]methyl}phenyl)carbamate], the “AC1.4 Human” value worked out at 0.03 µM and the EC50 is 0.44 µM.
The corresponding values for `CS(=O)(=O)N1CCC(Cc2ccc(NC(=O)OCc3ccc(Cl)cc3)cc2)CC1` [Compound 38, 4-chlorobenzyl (4-((1-(methylsulfonyl)piperidin-4-yl)methyl)phenyl)carbamate] are 0.42 µM and 1.22 µM.
As for `CC(=O)N1CCN(Cc2ccc(NC(=O)OCc3ccc(Cl)cc3)cc2)CC1` [Compound 191, (4-chlorophenyl)methyl N-{4-[(4-acetylpiperazin-1-yl)methyl]phenyl}carbamate], the “AC1.4 Human” value worked out at 1.69 µM and the EC50 was found to be 21.9 µM.
For `O=C(Nc1ccc(CC2CC3CCC(C2)N3C(=O)N2CCCC2)cc1)OCc1cnco1` (stereo not shown) [Compound 391, oxazol-5-ylmethyl (4-((8-(pyrrolidine-1-carbonyl)-8-azabicyclo[3.2.1]octan-3-yl)methyl)phenyl)carbamate], the “AC1.4 Human” value is 0.05 µM and the EC50 worked out at 5.5 µM.
The matching figures for `O=C(Cc1cnco1)NCc1ccc(NC(=O)OCc2ccc(Cl)cc2)cc1` [Compound 311, (4-chlorophenyl)methyl N-(4-{[2-(1,3-oxazol-5-yl)acetamido]methyl}phenyl)carbamate]: 5.40 µM and 26.8 µM.
For the molecule `O=C(Nc1ccc(CC2CCN(C(=O)N3CC(F)(F)C3)CC2)cc1)OCc1cnco1` [Compound 463, oxazol-5-ylmethyl (4-((1-(3,3-difluoroazetidine-1-carbonyl)piperidin-4-yl)methyl)phenyl)carbamate], the “AC1.4 Human” value was determined as 0.42 µM and the concentration for a half-maximal effect (EC50) was 43.6 µM.
On to `CN(C)C(=O)N1CCC(Cc2ccc(NC(=O)OCc3cnco3)cc2)CC12CC2` (stereo not shown) [Compound 442, oxazol-5-ylmethyl (4-((4-(dimethylcarbamoyl)-4-azaspiro[2.5]octan-7-yl)methyl)phenyl)carbamate], for which the “AC1.4 Human” value amounted to 0.12 µM and the 50% effective concentration (EC50) is 3.78 µM.
For the molecule `O=C(Nc1ccc(CNC(=O)c2ncccc2F)cc1)OCc1ccc(Cl)cc1` [Compound 207, (4-chlorophenyl)methyl N-(4-{[(3-fluoropyridin-2-yl)formamido]methyl}phenyl)carbamate], the “AC1.4 Human” value was found to be 1.85 µM and the EC50 was determined as 9.34 µM.
The corresponding values for `Cc1nn(C)c(C(=O)N[C@@H](C)c2ccc(NC(=O)OCc3ccc(Cl)cc3)cc2)c1F` [Compound 141, (4-chlorophenyl)methyl N-{4-[(1S)-1-[(4-fluoro-2,5-dimethylpyrazol-3-yl)formamido]ethyl]phenyl}carbamate] are 1.17 µM and 2.24 µM.
The matching figures for `CN1CC(=O)NC[C@@H]1c1ccc(NC(=O)OCc2ccc(C(F)F)cc2)cc1` [Compound 204, 4-(difluoromethyl)benzyl (S)-(4-(1-methyl-5-oxopiperazin-2-yl)phenyl)carbamate]: 1.83 µM and 21.1 µM.
As to `CN(C)C(=O)N1CCC2(CC(Cc3ccc(NC(=O)OCc4cnco4)cc3F)C2)C1` (stereo not shown) [Compound 379, oxazol-5-ylmethyl (4-((6-(dimethylcarbamoyl)-6-azaspiro[3.4]octan-2-yl)methyl)-3-fluorophenyl)carbamate], the “AC1.4 Human” value stood at 0.12 µM and the half-maximal effective concentration (EC50) was 2.96 µM.
The corresponding values for `CN(C)C(=O)N1CC2CC(C1)C2Cc1ccc(NC(=O)OCc2cnco2)cc1` (stereo not shown) [Compound 436, oxazol-5-ylmethyl (4-((3-(dimethylcarbamoyl)-3-azabicyclo[3.1.1]heptan-6-yl)methyl)phenyl)carbamate] are 0.08 µM and 6.04 µM.
The corresponding values for `O=C(Nc1ccc(Cc2cnccn2)cc1)OCc1ccc(Cl)cc1` [Compound 303, 4-chlorobenzyl (4-(pyrazin-2-ylmethyl)phenyl)carbamate] are 4.87 µM and 19.4 µM.
Take `CS(=O)(=O)N1CC2CCC(C1)C2Cc1ccc(NC(=O)OCc2cnco2)cc1` (stereo not shown) [Compound 420, oxazol-5-ylmethyl (4-((3-(methylsulfonyl)-3-azabicyclo[3.2.1]octan-8-yl)methyl)phenyl)carbamate]: the “AC1.4 Human” value was found to be 0.12 µM and the EC50 came out at 6.55 µM.
Regarding `CC(C)N1CC(=O)NC[C@@H]1c1ccc(NC(=O)OCc2ccc(Cl)cc2)cc1` [Compound 304, 4-chlorobenzyl (S)-(4-(1-isopropyl-5-oxopiperazin-2-yl)phenyl)carbamate], the “AC1.4 Human” value was 4.93 µM and the concentration for a half-maximal effect (EC50) worked out at 23.5 µM.
For `CN(C)C(=O)N1CCC(Cc2ccc(NC(=O)OCc3cnco3)cc2)C2CC21` (stereo not shown) [Compound 454, oxazol-5-ylmethyl (4-((2-(dimethylcarbamoyl)-2-azabicyclo[4.1.0]heptan-5-yl)methyl)phenyl)carbamate], the “AC1.4 Human” value was 0.14 µM and the 50% effective concentration (EC50) amounted to 16.1 µM.
On to `CN1CCC(C(=O)NCc2ccc(NC(=O)OCc3ccc(Cl)cc3)cc2)CC1=O` (stereo not shown) [Compound 124, (4-chlorophenyl)methyl N-(4-{[(1-methyl-2-oxopiperidin-4-yl)formamido]methyl}phenyl)carbamate], for which the “AC1.4 Human” value worked out at 0.98 µM and the EC50 worked out at 15.3 µM.
Consider `Cc1ccc(NC(=O)Cc2ccc(NC(=O)OCc3ccc(Cl)cc3)cc2)cn1` [Compound 199, (4-chlorophenyl)methyl N-(4-{[(6-methylpyridin-3-yl)carbamoyl]methyl}phenyl)carbamate], for which the “AC1.4 Human” value was 1.77 µM and the EC50 was found to be 5.28 µM.
Take `Cc1cnc(C(=O)NCc2ccc(NC(=O)OCc3ccc(Cl)cc3)cc2)o1` [Compound 294, (4-chlorophenyl)methyl N-(4-{[(5-methyl-1,3-oxazol-2-yl)formamido]methyl}phenyl)carbamate]: the “AC1.4 Human” value worked out at 4.19 µM and the concentration for a half-maximal effect (EC50) was found to be 46.5 µM.
For `O=C(Nc1ccc(Cc2ccncc2)cc1)OCc1ccns1` [Compound 219, isothiazol-5-ylmethyl (4-(pyridin-4-ylmethyl)phenyl)carbamate], the “AC1.4 Human” value is 2.03 µM and the EC50 is 20.6 µM.
For `Cc1nn(C)c(C(=O)NCc2ccc(NC(=O)OCc3ccc(Cl)cc3)cc2)c1C` [Compound 19, (4-chlorophenyl)methyl N-(4-{[(2,4,5-trimethylpyrazol-3-yl)formamido]methyl}phenyl)carbamate], the “AC1.4 Human” value was 0.26 µM and the concentration for a half-maximal effect (EC50) turned out to be 0.59 µM.
In the case of `COc1ccc(COC(=O)Nc2ccc([C@@H](C)C(=O)N3CCC[C@H]3CO)cc2)cc1` [Compound 47], the “AC1.4 Human” value turned out to be 0.49 µM and the EC50 was 9.61 µM.
The matching figures for `CS(=O)(=O)N1CCC[C@@H](c2ccc(NC(=O)OCc3cnco3)cc2)C1` [Compound 382, oxazol-5-ylmethyl (S)-(4-(1-(methylsulfonyl)piperidin-3-yl)phenyl)carbamate]: 0.35 µM and 22.4 µM.
With `COCCn1nccc1C(=O)N[C@@H](C)c1ccc(NC(=O)OCc2ccc(Cl)cc2)cc1` [Compound 56, (4-chlorophenyl)methyl N-{4-[(1S)-1-{[2-(2-methoxyethyl)pyrazol-3-yl]formamido}ethyl]phenyl}carbamate], the “AC1.4 Human” value is 0.53 µM and the EC50 was determined as 2.8 µM.
Take `C[C@H](NC(=O)c1ccncc1)c1ccc(NC(=O)OCc2ccc(Cl)cc2)cc1` [Compound 105, (4-chlorophenyl)methyl N-{4-[(1S)-1-(pyridin-4-ylformamido)ethyl]phenyl}carbamate]: the “AC1.4 Human” value came to 0.85 µM and the EC50 was determined as 1.94 µM.
On to `Cc1cc(C(=O)NCc2ccc(NC(=O)OCc3ccc(Cl)cc3)cc2)ccn1` [Compound 173, (4-chlorophenyl)methyl N-(4-{[(2-methylpyridin-4-yl)formamido]methyl}phenyl)carbamate], for which the “AC1.4 Human” value is 1.46 µM and the concentration giving a half-maximal response (EC50) came out at 4.39 µM.
As for `CC(C)n1nccc1C(=O)NCc1ccc(NC(=O)OCc2ccc(Cl)cc2)cc1` [Compound 301, (4-chlorophenyl)methyl N-(4-{[(2-isopropylpyrazol-3-yl)formamido]methyl}phenyl)carbamate], the “AC1.4 Human” value was 4.81 µM and the EC50 was found to be 26.8 µM.
The matching figures for `CN(C)S(=O)(=O)N1CCC(Cc2ccc(NC(=O)OCc3cnco3)cc2F)CC1` [Compound 447, oxazol-5-ylmethyl (4-((1-(N,N-dimethylsulfamoyl)piperidin-4-yl)methyl)-3-fluorophenyl)carbamate]: 0.08 µM and 2.31 µM.
The corresponding values for `CCS(=O)(=O)N1CCC2(CC(Cc3ccc(NC(=O)OCc4cnco4)cc3F)C2)C1` (stereo not shown) [Compound 369, oxazol-5-ylmethyl (3-fluoro-4-((6-(ethylsulfonyl)-6-azaspiro[3.4]octan-2-yl)methyl)phenyl)carbamate] are 0.16 µM and 4.36 µM.
The corresponding values for `CC(C)OC(=O)N1CCC(Cc2ccc(NC(=O)OCc3cnco3)cc2)CC1` [Compound 446, isopropyl 4-(4-(((oxazol-5-ylmethoxy)carbonyl)amino)benzyl)piperidine-1-carboxylate] are 0.73 µM and 19.3 µM.
With `CC(=O)N1CC2(CC(c3ccc(NC(=O)OCc4cnco4)cc3)C2)C1` [Compound 358, oxazol-5-ylmethyl (4-(2-acetyl-2-azaspiro[3.3]heptan-6-yl)phenyl)carbamate], the “AC1.4 Human” value came to 0.25 µM and the concentration giving a half-maximal response (EC50) was 28.9 µM.

The values are drawn from US20240279215A1 (Cytokinetics, Incorporated, priority 2022, published 2024).
